Columns and labels:
MCF-10A = test: Cytotoxicity against human MCF-10A cells assessed as inhibition of cell proliferation measured after 72 hrs by CCK-8 assay; assay type: cell-based
MDA-MB-231 = test: Antiproliferative activity against human MDA-MB-231 cells assessed as inhibition of cell proliferation measured after 72 hrs by CCK-8 assay; assay type: functional, cell-based; conditions: MDA-MB-231, 72 h
MCF7 = test: Antiproliferative activity against human MCF7 cells assessed as inhibition of cell proliferation measured after 72 hrs by CCK-8 assay; assay type: functional, cell-based; conditions: MCF7, 72 h

Structure (SMILES): COC(=O)[C@H](Cc1ccc(N(CCCl)CCCl)cc1)NC(=O)CCCC(=O)OCc1cc2c([nH]c3ccccc32)c(C)n1
- IC50 (MCF-10A): > 40 µM
- IC50 (MDA-MB-231): > 20 µM
- IC50 (MCF7): > 20 µM

Structure (SMILES): O=CN[C@@H](Cc1ccc(N(CCCl)CCCl)cc1)C(=O)OCc1cc2c(cn1)[nH]c1ccccc12
- IC50 (MCF-10A): 25.7 µM
- IC50 (MDA-MB-231): 6.53 µM
- IC50 (MCF7): 2.7 µM

Structure (SMILES): COc1ccc(-c2nc(CO)cc3c2[nH]c2ccccc23)cc1
- IC50 (MCF-10A): > 40 µM
- IC50 (MDA-MB-231): > 20 µM
- IC50 (MCF7): 15.8 µM

Structure (SMILES): COC(=O)[C@H](Cc1ccc(N(CCCl)CCCl)cc1)NC(=O)CCC(=O)OCc1cc2c(cn1)[nH]c1ccccc12
- IC50 (MCF-10A): > 40 µM
- IC50 (MDA-MB-231): > 20 µM
- IC50 (MCF7): > 20 µM

Structure (SMILES): Cc1nc(CO)cc2c1[nH]c1ccccc12
- IC50 (MCF-10A): > 40 µM
- IC50 (MDA-MB-231): > 20 µM
- IC50 (MCF7): 11.3 µM

Structure (SMILES): Cc1nc(COC(=O)[C@H](Cc2ccc(N(CCCl)CCCl)cc2)NC(=O)OC(C)(C)C)cc2c1[nH]c1ccccc12
- IC50 (MCF-10A): > 40 µM
- IC50 (MDA-MB-231): 17.5 µM
- IC50 (MCF7): 4.9 µM

Structure (SMILES): COC(=O)[C@H](Cc1ccc(N(CCCl)CCCl)cc1)NC(=O)CCC(=O)OCc1cc2c([nH]c3ccccc32)c(C)n1
- IC50 (MCF-10A): > 40 µM
- IC50 (MDA-MB-231): > 20 µM
- IC50 (MCF7): > 20 µM

Structure (SMILES): COC(=O)[C@H](Cc1ccc(N(CCCl)CCCl)cc1)NC(=O)CCCC(=O)OCc1cc2c(cn1)[nH]c1ccccc12
- IC50 (MCF-10A): > 40 µM
- IC50 (MDA-MB-231): > 20 µM
- IC50 (MCF7): > 20 µM

Structure (SMILES): COc1ccc(-c2nc(COC(=O)[C@H](Cc3ccc(N(CCCl)CCCl)cc3)NC(=O)OC(C)(C)C)cc3c2[nH]c2ccccc23)cc1
- IC50 (MCF-10A): > 40 µM
- IC50 (MDA-MB-231): 19.6 µM
- IC50 (MCF7): 5.31 µM

Structure (SMILES): COC(=O)[C@H](Cc1ccc(N(CCCl)CCCl)cc1)NC(=O)CCCC(=O)OCc1cc2c([nH]c3ccccc32)c(-c2ccc(OC)cc2)n1
- IC50 (MCF-10A): > 40 µM
- IC50 (MDA-MB-231): > 20 µM
- IC50 (MCF7): > 20 µM

Reference: ChEMBL document CHEMBL4834486 (Bioorg Med Chem, 2021)
